# Like-named read-outs stand apart in the source and are kept apart here.
# Legend:
# [1] = Comparison of stability: temperature of dehydration; assay type: physicochemical
# Excerpt: Stability of crystalline 3-(3-methoxy-4-((4-methoxybenzyl)oxy)benzyl)-6-(1-methyl-1H-pyrazol-4-yl)-3H-imidazo[4,5-b]pyridin-2-amine monohydrate Form 3 was compared to crystalline 3-(3-methoxy-4-((4-methoxybenzyl)oxy)benzyl)-6-(1-methyl-1H-pyrazol-4-yl)-3H-imidazo[4,5-b]pyridin-2-amine monohydrate Form 1. The physical property analyzed was temperature of dehydration. Crystalline 3-(3-methoxy-4-((4-methoxybenzyl)oxy)benzyl)-6-(1-methyl-1H-pyrazol-4-yl)-3H-imidazo[4,5-b]pyridin-2-amine monohydrate Form 1 is that described in international patent application publication WO 2016/100677.
# [2] = Pharmacokinetic parameters in plasma after intra-articular administration to rats; assay type: in vivo, Sprague Dawley rats; conditions: for Tmax / AUC(0-t) / AUC0-inf / Cmax / AUC0-672 / AUC0-1344 / Ratio Result from Compound Form 3/Compound Form 1: AUC0-672 / Ratio Result from Compound Form 3/Compound Form 1: AUC0-1344 / Ratio Result from Compound Form 3/Compound Form 1: AUC0-inf / Ratio Result from Compound Form 3/Compound Form 1: Cmax: plasma; for Tmax / AUC(0-t) / AUC0-inf / Cmax / AUC0-672 / AUC0-1344: male rat; for Tmax: range printed in row below; for AUC(0-t) / AUC0-inf / Cmax / AUC0-672 / AUC0-1344: mean
# Method: (§1) Male rats were administered one of the following Test Articles via intra-articular administration to the left knee joint and thereafter pharmacokinetic properties were monitored: crystalline 3-(3-methoxy-4-((4-methoxybenzyl)oxy)benzyl)-6-(1-methyl-1H-pyrazol-4-yl)-3H-imidazo[4,5-b]pyridin-2-amine monohydrate Form 3 (“Form 3 Compound”) or crystalline 3-(3-methoxy-4-((4-methoxybenzyl)oxy)benzyl)-6-(1-methyl-1H-pyrazol-4-yl)-3H-imidazo[4,5-b]pyridin-2-amine monohydrate Form 1 (“Form 1 Compound”).
# (§2) Male Sprague Dawley rats were allocated into four groups, where each group contained 12 rats having a weight in the range of 250 g to 300 g and an age of 7 to 9 weeks. Test Article was administered in the form of a suspension via intra-articular injection to the left knee joint of the rats according to the experimental design set forth in Table 1 below.
# (§3) Each Test Article contained the specified methoxy-4-((4-methoxybenzyl)oxy)benzyl)-6-(1-methyl-1H-pyrazol-4-yl)-3H-imidazo[4,5-b]pyridin-2-amine monohydrate compound suspended in vehicle. Vehicle was […], 4.5% sorbitol, in aqueous phosphate buffer at pH 7.4. Each Test Article in the form of a suspension contained 20 mg/mL methoxy-4-((4-methoxy-benzyl)oxy)benzyl)-6-(1-methyl-1H-pyrazol-4-yl)-3H-imidazo[4,5-b]pyridin-2-amine monohydrate in the specified crystalline form.
# Blood samples were collected from the jugular vein of the rats via syringe and needle and transferred into tubes containing K3EDTA. Blood samples were collected from the first six animals/group at 2 minutes, 10 minutes, 1 hr, 4 hr, 12 hr, 72 hr, 336 hr, and 672 hr after administration of Test Article. Blood samples were collected from the second six animals/group at 5 minutes, 0.5 hr, 2 hr, 8 hr, 24 hr, 168 hr, 1008 hr, and 1344 hr after administration of Test Article. Following centrifugation of the blood samples, plasma was cooled using dry ice until it was subjected to analytical analysis using liquid chromatograph-mass spectrometry to determine the amount of the compound methoxy-4-((4-methoxybenzyl)oxy)benzyl)-6-(1-methyl-1H-pyrazol-4-yl)-3H-imidazo[4,5-b]pyridin-2-amine.
# [3] = Knee joint concentration and knee/plasma ratio after intra-articular administration to rats; assay type: in vivo, Sprague Dawley rats; conditions: for knee concentration of compound (in words): 0.1 mg dose, 672 hours, majority of animals
# Method: as §1, §2, §3
# The left knee joint (without injuring the articular capsule) of the rats together with 5-10 mm of both tibia and femur was collected from the first 6 animals/group after sacrifice at the last blood collection time point at approximately 672 hours postdose. The harvested knee joint was weighed. The left knee joint (without injuring the articular capsule) of the rats together with 5-10 mm of both tibia and femur was collected from the second 6 animals/group after sacrifice at the last blood collection time point at approximately 1344 hours postdose. The harvested knee joint was weighed. Tissue samples were maintained on dry ice prior to storage at −60 to −80° C. The knee joint samples were pulverized, then extracted with acetonitrile/water to provide a solution that was analyzed by using liquid chromatograph-mass spectrometry to determine the amount of the compound methoxy-4-((4-methoxybenzyl)oxy)benzyl)-6-(1-methyl-1H-pyrazol-4-yl)-3H-imidazo[4,5-b]pyridin-2-amine.
# [4] = Dialysis dissolution in simulated intra-articular fluid; assay type: physicochemical; conditions: for average release rate: at the 7 day time point, PBS pH 7.4 with BSA, 37° C.; for average release rate / one-half dissolution time: listed as crystalline 3-(3-methoxy-4-(4-methoxybenzyl)oxy)benzyl)-6-(1-methyl-1H-pyrazol-, monohydrate; for one-half dissolution time: dialysis bag, BSA/sodium hyaluronate in PBS pH 7.4, 37° C., 20 RPM
# Method: Dialysis dissolution of the following Test Compositions in simulated intra-articular fluid was analyzed: • Crystalline 3-(3-methoxy-4-((4-methoxybenzyl)oxy)benzyl)-6-(1-methyl-1H-pyrazol-4-yl)-3H-imidazo[4,5-b]pyridin-2-amine Monohydrate Form 3, and • Crystalline 3-(3-methoxy-4-((4-methoxybenzyl)oxy)benzyl)-6-(1-methyl-1H-pyrazol-4-yl)-3H-imidazo[4,5-b]pyridin-2-amine Monohydrate Form 1.
# Procedurally, Test Composition was placed into a dialysis bag along with Medium A. The dialysis bag was then closed and placed into a closed bottle containing Medium B. Medium A and B were preheated to 37° C. before use in the experiment. The closed bottles were placed into a rotating mixer system operating at 20 RPM so as to avoid suspension sedimentation inside the dialysis bag. An aliquot of Medium B from the bottle was removed at the following time points and analyzed by high-performance liquid chromatography with UV detection to determine the amount of 3-(3-methoxy-4-((4-methoxybenzyl)oxy)benzyl)-6-(1-methyl-1H-pyrazol-4-yl)-3H-imidazo[4,5-b]pyridin-2-amine in Medium B due to dialysis dissolution of the Test Composition from Medium A through the dialysis bag to Medium B: 3 hr, 6 hr, 24 hr, 29 hr, 48 hr, 72 hr, 144 hr, 168 hr, 192 hr, 216 hr, and 240 hr. One Test Composition was analyzed at the 360 hour timepoint. Medium A was bovine serum albumin (BSA) at 40 g/L (+0.2 g/L sodium azide), sodium hyaluronate at 3 g/L in reconstituted phosphate buffer saline pH 7.4. Medium B was bovine serum albumin (BSA) at 40 g/L (+0.2 g/L sodium azide) in reconstituted phosphate buffer saline pH 7.4.
# Dynamic vapor sorption = assay type: physicochemical; conditions: 25° C., 2 cycles of increasing and decreasing relative humidity, steps of 5% RH
# Method: A dynamic vapor sorption isotherm plot of crystalline 3-(3-methoxy-4-((4-methoxybenzyl)oxy)benzyl)-6-(1-methyl-1H-pyrazol-4-yl)-3H-imidazo[4,5-b]pyridin-2-amine monohydrate Form 3 is provided in FIG. 3. The dynamic vapor sorption isotherm plot results are from the procedure where after a drying stage at 0% relative humidity, compound sample was exposed to 2 cycles of increasing and decreasing relative humidity at 25° C., with steps of 5% relative humidity, where mass of the sample was recorded throughout the experiment.
# [5] = 0.1 mg/knee intra-articular, monohydrate
# [6] = 1 mg/knee intra-articular, monohydrate
# [7] = 0.1 mg/knee, 672 hr, monohydrate
# [8] = 1 mg/knee, 1344 hr, monohydrate
smiles,measurement,setting,value
"COc1ccc(COc2ccc(Cn3c(N)nc4cc(-c5cnn(C)c5)cnc43)cc2OC)cc1 [Form 1 Compound, 3-(3-methoxy-4-((4-methoxybenzyl)oxy)benzyl)-6-(1-methyl-1H-pyrazol-4-yl)-3H-imidazo[4,5-b]pyridin-2-amine monohydrate, reference compound]",dehydration behaviour,"[1]; room temperature, stream of nitrogen gas",undergo dehydration at room temperature
same,Tmax,"[2]; Sprague Dawley, 0.1 mg/knee intra-articular",4 h
same,AUC(0-t),"[2]; male, Sprague Dawley, rat, 0.1 mg, 0.1 mg/knee intra-articular, read-out: AUC0-672",1350 ng·h/mL
same,AUC0-inf,"[2]; male, Sprague Dawley, rat, 0.1 mg, 0.1 mg/knee intra-articular, read-out: AUC0-inf",1290 ng·h/mL
same,AUC(0-t),"[2]; male, Sprague Dawley, rat, 0.1 mg, 0.1 mg/knee intra-articular, summary from second six animals, read-out: AUC0-1344",1330 ng·h/mL
same,Cmax,[2]; [5],34.3 ng/mL
same,AUC0-672,[2]; [6],10600 ng·h/mL
same,AUC0-inf,[2]; [6],11800 ng·h/mL
same,Cmax,[2]; [6],71.6 ng/mL
same,AUC0-1344,"[2]; 1 mg/knee intra-articular, summary from second six animals, monohydrate",11100 ng·h/mL
same,knee concentration of compound (in words),[3]; monohydrate,below the limit of quantification in the majority of animals
same,Mean Knee Concentration of Compound,[3]; [7],852 ng/g
same,Mean Knee/Plasma Concentration Ratio,[3]; [7],58800
same,Mean Knee Concentration of Compound,"[3]; 0.1 mg/knee, 1344 hr, monohydrate",<LLOQ
same,Mean Knee Concentration of Compound,"[3]; 1 mg/knee, 672 hr, monohydrate",37400 ng/g
same,Mean Knee/Plasma Concentration Ratio,"[3]; 1 mg/knee, 672 hr, monohydrate",22100
same,Mean Knee Concentration of Compound,[3]; [8],4560 ng/g
same,Mean Knee/Plasma Concentration Ratio,[3]; [8],19000
same,average release rate,[4],0.54 %/hr
same,one-half dissolution time,[4],66 h
"COc1ccc(COc2ccc(Cn3c(N)nc4cc(-c5cnn(C)c5)cnc43)cc2OC)cc1 [Form 3 Compound, 3-(3-methoxy-4-((4-methoxybenzyl)oxy)benzyl)-6-(1-methyl-1H-pyrazol-4-yl)-3H-imidazo[4,5-b]pyridin-2-amine monohydrate]",thermodynamic stability compared to monohydrate Form 1,[1],thermodynamically more stable
same,temperature of dehydration,[1]; heated,130 °C
same,Tmax,"[2]; Sprague Dawley, 1 mg/knee intra-articular",4 h
same,absorption compared to Form 1 Compound,"[2]; intra-articular, rat",slower and more prolonged
same,AUC0-inf,"[2]; male, Sprague Dawley, rat, 1 mg, 1 mg/knee intra-articular, read-out: AUC0-inf",8040 ng·h/mL
same,Cmax,"[2]; male, Sprague Dawley, rat, 1 mg, 1 mg/knee intra-articular, read-out: Cmax",52.1 ng/mL
same,AUC(0-t),"[2]; male, Sprague Dawley, rat, 1 mg, 1 mg/knee intra-articular, summary from second six animals, read-out: AUC0-1344",7100 ng·h/mL
same,Ratio Result from Compound Form 3/Compound Form 1: AUC0-672,[2]; 0.1 mg/knee,0.508
same,Ratio Result from Compound Form 3/Compound Form 1: AUC0-1344,[2]; 0.1 mg/knee,0.611
same,Ratio Result from Compound Form 3/Compound Form 1: AUC0-inf,[2]; 0.1 mg/knee,0.587
same,Ratio Result from Compound Form 3/Compound Form 1: Cmax,[2]; 0.1 mg/knee,0.332
same,Ratio Result from Compound Form 3/Compound Form 1: AUC0-672,[2]; 1 mg/knee,0.494
same,Ratio Result from Compound Form 3/Compound Form 1: AUC0-1344,[2]; 1 mg/knee,0.640
same,Ratio Result from Compound Form 3/Compound Form 1: AUC0-inf,[2]; 1 mg/knee,0.681
same,Ratio Result from Compound Form 3/Compound Form 1: Cmax,[2]; 1 mg/knee,0.728
same,AUC0-672,[2]; [5],686 ng·h/mL
same,AUC0-inf,[2]; [5],757 ng·h/mL
same,Cmax,[2]; [5],11.4 ng/mL
same,AUC0-1344,"[2]; 0.1 mg/knee intra-articular, summary from second six animals, monohydrate",813 ng·h/mL
same,AUC0-672,[2]; [6],5240 ng·h/mL
same,knee concentration of compound (in words),[3]; monohydrate,consistently higher than the concentration
same,Knee concentration: Ratio of Form 3 Compound/Form 1 Compound,"[3]; 0.1 mg/knee, 672 hr",5.62
same,Knee/plasma ratio: Ratio of Form 3 Compound/Form 1 Compound,"[3]; 0.1 mg/knee, 672 hr",0.733
same,Mean Knee Concentration of Compound,[3]; [7],4790 ng/g
same,Mean Knee/Plasma Concentration Ratio,[3]; [7],43100
same,Mean Knee/Plasma Concentration Ratio,"[3]; 0.1 mg/knee, 1344 hr",77400
same,Knee concentration: Ratio of Form 3 Compound/Form 1 Compound,"[3]; 1 mg/knee, 672 hr",5.40
same,Knee/plasma ratio: Ratio of Form 3 Compound/Form 1 Compound,"[3]; 1 mg/knee, 672 hr",2.64
same,Mean Knee Concentration of Compound,"[3]; 1 mg/knee, 672 hr, monohydrate",202000 ng/g
same,Mean Knee/Plasma Concentration Ratio,"[3]; 1 mg/knee, 672 hr, monohydrate",58300
same,Knee concentration: Ratio of Form 3 Compound/Form 1 Compound,"[3]; 1 mg/knee, 1344 hr",13.6
same,Knee/plasma ratio: Ratio of Form 3 Compound/Form 1 Compound,"[3]; 1 mg/knee, 1344 hr",1.96
same,Mean Knee Concentration of Compound,[3]; [8],62200 ng/g
same,Mean Knee/Plasma Concentration Ratio,[3]; [8],37200
same,concentration at 1344 hr,"[3]; male, Sprague Dawley, rat, knee joint, other: intra-articular injection to the left knee joint, 0.1 mg/knee, 1344 hr, read-out: Mean Knee Concentration of Compound",383 ng/g
same,hygroscopicity (dynamic vapor sorption isotherm),Dynamic vapor sorption,not hygroscopic
same,average release rate,[4],0.35 %/hr
same,one-half dissolution time,[4],112 h
same,dialysis dissolution rate compared to Form 1,[4]; simulated intra-articular fluid,significantly lower

# Reference: US12291528B2, “Crystalline imidazo[4,5-b]pyridine compound, pharmaceutical compositions, and their use in treating medical conditions” (Genzyme Corporation, priority 2021, dated 2025)
